Laboratory results published in US9631050B2, “Antimicrobial cationic polycarbonates” (International Business Machines Corporation, priority 2013, dated 2017).

Test system: mammalian red blood cells
Protocol: HC50 is defined as the concentration (in mg/L) of cationic polymer that causes 50% of mammalian red blood cells to undergo hemolysis. HC50 values of 500 mg/L or higher are desirable.
Fresh rabbit blood cells or rat blood cells were subjected to 25× dilution with phosphate buffered saline (PBS) to obtain an approximate 4% v/v suspension for use in this experiment. Red blood cell suspension (300 microliters) was added to each tube containing an equal volume (300 microliters) of polymer solution in PBS (with final polymer concentrations ranging from 3.9-500 mg/L). The tubes were then incubated at 37° C. for 1 hour before they were centrifuged at 1000×g for 5 min. Aliquots (100 microliters) of supernatant were transferred to each well of a 96-well plate and analyzed for hemoglobin release at 576 nm using a microplate reader (TECAN, Switzerland). Red blood cells suspension incubated with PBS was used as negative control. Absorbance of red blood cells lyzed with 0.1% v/v Triton X-100 was used as the positive control and taken to be 100% hemolytic. Percentage of hemolysis was calculated using the following formula: Hemolysis (%)=[(O.D.576 nm of treated sample−O.D.576 nm of negative control)/(O.D.576 nm of positive control−O.D.576 nm of negative control)]×100. Data are expressed as mean±standard deviations of 4 replicates.

- HC50: 250 mg/L
Substance: Butyl imidazole [Example 36]
